Experimental findings from patent publication US20210163489A1, “PYRAZOLOPYRIMIDINE DERIVATIVES AND THE COMPOSITIONS AND METHODS OF TREATMENT REGARDING THE SAME” (NysnoBio Ireland DAC, priority 2016, published 2021) are described below.

The structures appear in SMILES notation. Bounds are passed on as bounds.

The assay concerns the target T1, Parkin (Homo sapiens, UniProt O60260).
T1 construct: Enzyme 3: Parkin-His tagged 203 μM (10.5 mg/ml)
The experiment in a line: Parkin pUB auto-ubiquitinylation assay (TR-FRET). The format is biochemical. Particulars: for EC50: activation of pUb activated Parkin, read-out: Auto-ubiq EC50 (μM) [Example 3]. From the text:
A Parkin pUB Auto-ubiquitinylation Assay is used to evaluate a compound's potency to activate Parkin's ability to Auto-ubiquitinylate itself.
The principle of this assay is that the E3 Ligase Parkin catalyzes the transfer of Ubiquitin to target proteins, but also has the ability to auto-ubiquitinylate itself. The phospho-Ubiquition (pUb) added to the assay alters the Parkin to a state where small molecule activators can enable the Parkin to auto-ubiquitinylate though the E1-E2 cascade reaction. The use of a Eu cryptate Ubiquition and anti 6His-d2 that binds to the His tagged Parkin will give a signal when the Eu cryptate Ubiquition is auto-ubiquitinylate onto the Parkin which can be monitored by TR-FRET.
Similar to the Activity-based probe assay in Example 2, screening for activating compounds can be distinguished from the controls as follows:
100% activation signal=pUb activated Parkin+40 nM control activator in DMSO. 0% activation signal=pUb activated Parkin+DMSO only. Parkin activators can be identified by an increase of the 0% activation signal TR-FRET signal.
• Assay Plate: White 384 well plate (Corning 3572) • Enzyme 1: E1 (Ubiquitin-activating enzyme/UBE1 Boston Biochem E-305) • Enzyme 2: E2 (UBcH7/Ube2L3 Boston Biochem E2-640) • Enzyme 3: Parkin-His tagged 203 μM (10.5 mg/ml) • pUb: Phospho-Ubiquitin (S65) (Boston Biochem U-102) • Eu Cryptate Reagent: Ubiquitin Eu (CisBio 61UBIKLA) • DMSO: DMSO (Sigma-34869-2.5L) • Reaction Buffer: 50 mM HEPES, 50 mM NaCl, 1 mM MgCl2, 0.005% Tween 20, 0.1% • PF-127 (Fisher Scientific 50-310-494), pH 8.5 • Detection Buffer: 50 mM HEPES, 50 mM NaCl, 800 mM KF, 5 mM EDTA, 0.005% • Tween 20, 0.1% PF-127, pH 8.5 • Detection Reagent Z: 13.4 nM Anti-6His-d2 in detection buffer • d2 Reagent: Anti-6His-d2 (CisBio 61HISDLA)
Enzyme Reaction (15 min Pre-Incubation with Parkin, pUb and Activator Only) • Parkin: 196 nM • pUb: 196 nM • DMSO: 1% DMSO • E1: 5 nM • E2: 50 nM • Ubiquitin Eu: 8.8 nM • Reaction time: 120 minutes • Temperature: 22° C. • Total volume: 10 μl reaction
Take 10 μl of Enzyme Reaction above and add 10 μl detection Reagent Z under the following conditions:
Reaction time: 60 minutes
1) Load assay plate wells with 4.9 μl 400.0 nM Parkin, 400 nM pUb in reaction buffer by use of Eppendorf 12-channel pipette. 2) Deliver 0.1 μl 100× activator candidates in DMSO by use of Echo 555 compound dispenser. Highest 100× concentration=100 μm and then twofold dilutions. Add each compound and control in duplicate wells. 3) Spin 1000 rpm, 2 minutes, at room temp. 4) Incubate plate for 15 minutes at room temp. 5) Add 5 μl 10 nM E1, 100 nM E2, 17.6 nM Ubiquitin Eu and 2 mM ATP in Reaction Buffer by use of Eppendorf 12-channel pipette. 6) Spin 1000 rpm, 2 minutes, at room temp. 7) Incubate plate for 120 minutes at room temp. 8) Add 10 μl 13.4 nM anti his d2 in detection buffer by use of Eppendorf 12-channel pipette. 9) Spin 1000 rpm, 2 minutes, at room temp. 10) Incubate plate for 120 minutes at room temp. 11) Read plates on Perkin Elmer Envision instrument with the following parameters:
LANCE dual laser protocol loaded into the Envision® software
Top Mirror: LANCE/DELFIA Duel/Bias (Bar code 446) Emission Filter: APC 665 EM (Bar code 205) 2nd Emission Filter: Europium 615 EM (Bar code 203) Read […] (channel 1) and 615 nm (channel 2) wavelengths on Envision®
Data Analysis: The Data can be read in CSV files. There are two tables in those CSV files, which are the values of 655 nm (channel 1) and 615 nm (channel 2) wavelengths respectively. The data is converted to an HTRF Ratio=(Channel 1/Channel 2)*10,000
The average of all the 0 uM controls (DMSO only)=BKGD (Background—0% activation). Subtract BKGD from each HTRF Ratio value=HTRF-BKGD. The average of all the 100 uM control activator in DMSO controls=Max (100% activation). The following equation is then used to calculate % Activation for each well/candidate as follows: % Activation=(HTRF−BKGD/Max)*100.
XLFIT5 model 205 was applied for the data analysis. […]

T1 sequence (O60260 whole entry, other chains not shown): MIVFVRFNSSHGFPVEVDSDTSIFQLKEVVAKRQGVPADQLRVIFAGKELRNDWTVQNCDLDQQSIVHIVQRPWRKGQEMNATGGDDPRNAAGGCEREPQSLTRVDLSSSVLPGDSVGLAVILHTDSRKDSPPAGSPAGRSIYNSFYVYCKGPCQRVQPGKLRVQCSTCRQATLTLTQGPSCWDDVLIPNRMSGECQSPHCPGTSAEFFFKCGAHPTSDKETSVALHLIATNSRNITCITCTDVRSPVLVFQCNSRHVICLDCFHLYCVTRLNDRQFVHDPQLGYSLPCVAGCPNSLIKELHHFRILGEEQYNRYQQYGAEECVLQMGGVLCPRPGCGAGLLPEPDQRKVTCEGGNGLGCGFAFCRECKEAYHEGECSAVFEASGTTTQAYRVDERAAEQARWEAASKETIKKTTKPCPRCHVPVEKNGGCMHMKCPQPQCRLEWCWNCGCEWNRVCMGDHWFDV

For `Cc1nn2c(S)cc(C(C)C)nc2c1-c1ccccc1` [H], the EC50 is more than 40 µM.
In the case of `Cc1cc(S)c2ncc(-c3ccc(F)cc3)n2n1` [Compound F3], the EC50 stood at 32 µM.
For `Oc1c(Cc2ccccc2)cnc2c(-c3ccccc3)cnn12` [Compound W, 6-benzyl-3-phenyl-pyrazolo[1,5-a]pyrimidin-7-ol], the EC50 is more than 40 µM.
Same read-out and setting: next, `Cc1nn2c(O)c3c(nc2c1-c1ccccc1)CCN(C)C3` [Compound K3]: more than 40 µM; `Cc1cc(S)n2ncc(-c3cccc(N(C)C)c3)c2n1` [UU]: more than 40 µM; `Cc1nc2c(-c3ccccc3)c(C)nn2c(S)c1Cc1ccncc1` [Compound AA, 2,5-dimethyl-3-phenyl-6-(4-pyridylmethyl)pyrazolo[1,5-a]pyrimidine-7-thiol]: more than 40 µM.
On the same count and under the same terms, next, `Cc1nn2c(O)cc(C(C)(C)C)nc2c1-c1ccc(Cl)cc1` [F]: more than 40 µM; `Cc1nc2c(-c3ccccc3)cnn2c(S)c1Cc1ccccc1` [Compound CC, 6-benzyl-5-methyl-3-phenyl-pyrazolo[1,5-a]pyrimidin-7-thiol]: more than 40 µM.
Still for that read-out and setting: under `Cc1cc(C)c2c(n1)nn1c(O)c(Cc3ccccc3)c(C)nc21` [NN] stands more than 40 µM; under `Sc1c(Cc2ccccc2)cnc2c(-c3ccccc3)cnn12` [Compound Z, 6-benzyl-3-phenyl-pyrazolo[1,5-a]pyrimidin-7-thiol], more than 40 µM.
As for `Cc1cc2nc(C)c(Cc3ccc(Cl)cc3)c(S)n2n1` [Compound R, 6-[(4-chlorophenyl)methyl]-2,5-dimethyl-pyrazolo[1,5-a]pyrimidine-7-thiol], the concentration giving a half-maximal response (EC50) is more than 40 µM.
The same measure, in the same setting: under `Cc1ccc(-c2cnn3c(O)c4c(nc23)CN(C)CC4)cc1` [Compound P3] stands more than 40 µM.
Still for that read-out and setting: next, `Cc1cc(S)n2nc(C)c(-c3ccc(Cl)cc3)c2n1` [N]: more than 40 µM.
With `Cc1nc2c(C(F)(F)F)c(C)nn2c(S)c1Cc1ccccc1` [LL], the EC50 came out at 16.5 µM.
For `CCc1nn2c(S)cc(C)nc2c1-c1ccc(F)cc1` [Compound I], the EC50 was 6.4 µM.
The same measure, in the same setting: next, `Cc1cc(S)n2nc(C)c(-c3ccccc3)c2n1` [O]: more than 40 µM; `Cc1cc(S)n2ncc(-c3cnn(C)c3)c2n1` [VV]: more than 40 µM.
In the case of `Cc1nc2c(-c3ccccc3)c(C)nn2cc1Cc1ccccc1` [QQ], the EC50 is more than 40 µM.
The same measure, in the same setting: under `Cc1nc2c(-c3ccccc3)c(C)nn2c(O)c1Cc1ccccn1` [Compound Y, 2,5-dimethyl-3-phenyl-6-(2-pyridylmethyl)pyrazolo[1,5-a]pyrimidin-7-ol] stands more than 40 µM; under `Cc1ccc(-c2cnn3c(S)cc(C)nc23)cc1` [TT], more than 40 µM; under `Cc1cc(O)n2ncc(-c3cccc(N(C)C)c3)c2n1` [Compound M3], more than 40 µM.
Consider `Cc1nn2c(S)c3c(nc2c1-c1ccccc1)CCOC3` [WW], for which the concentration giving a half-maximal response (EC50) is more than 40 µM.
Still for that read-out and setting: under `Cc1nn2c(S)c(CC(C)C)cnc2c1-c1ccccc1` [Compound G3] stands more than 40 µM.
Still for that read-out and setting: next, `Cc1nn2c(S)c3c(nc2c1-c1ccccc1)CN(C)CC3` [Compound C3]: more than 40 µM; `CC(C)(C)c1cc(O)n2ncc(-c3ccc(Cl)cc3)c2n1` [Compound G]: more than 40 µM.
On the same count and under the same terms, under `COc1ccccc1-c1c(C)nn2c(S)cc(C)nc12` [Compound D] stands 11.7 µM; under `Cc1nc2c(-c3ccccc3)c(C)nn2c(O)c1Cc1ccncc1` [Compound X, 2,5-dimethyl-3-phenyl-6-(4-pyridylmethyl)pyrazolo[1,5-a]pyrimidin-7-ol], more than 40 µM; under `CC(C)(C)c1cc(O)n2ncc(-c3ccccc3)c2n1` [J], 13.4 µM.
As to `Cc1nc2c(C(=O)N(C)C)c(C)nn2c(O)c1Cc1ccccc1` [EE], the EC50 is more than 40 µM.
On the same count and under the same terms, under `Cc1nc2c(C(F)(F)F)c(C)nn2c(O)c1Cc1ccccc1` [JJ] stands more than 40 µM; under `Cc1nc2c(C3CCN(C)CC3)c(C)nn2c(S)c1Cc1ccccc1` [Compound N3], more than 40 µM.
Take `CCCc1cc(S)n2nc(C)c(-c3ccccc3)c2n1` [Compound B]: the EC50 is more than 40 µM.
Same read-out and setting: next, `Cc1cc2nc(C)c(Cc3ccccc3)c(O)n2n1` [Q]: more than 40 µM; `Cc1nn2c(O)c(CC(C)C)cnc2c1-c1ccccc1` [Compound I3]: more than 40 µM.
On to `Cc1nn2c(S)c(CCc3ccccc3)cnc2c1-c1ccccc1` [Compound E3], for which the EC50 worked out at 29 µM.
On the same count and under the same terms, next, `Cc1nn2c(S)c(C)c(Cc3ccccc3)nc2c1-c1ccccc1` [ZZ]: more than 40 µM; `COc1ccc(-c2cnn3c(O)cc(C)nc23)cc1` [Compound J3]: more than 40 µM; `Cc1nc2c(-c3ccccn3)c(C)nn2c(S)c1Cc1ccccc1` [HH]: more than 40 µM.
Regarding `Cc1nc2c(-c3ccncc3)c(C)nn2c(S)c1Cc1ccccc1` [MM], the EC50 is more than 40 µM.
On to `Cc1nc2c(C#N)c(C)nn2c(O)c1Cc1ccccc1` [Compound GG, 6-benzyl-7-hydroxy-2,5-dimethyl-pyrazolo-[1,5-a]pyrimidine-3-carbonitrile], for which the EC50 was more than 40 µM.
The same measure, in the same setting: next, `Cc1nn2c(S)c3c(nc2c1-c1ccccc1)COC3` [XX]: more than 40 µM; `Cc1ccc(-c2cnn3c(S)c4c(nc23)CN(C)CC4)cc1` [Compound S3]: more than 40 µM.
Still for that read-out and setting: under `COc1ccc(Cn2ccc(-c3cnn4c(S)cc(C)nc34)cc2=O)cc1` [Compound B3] stands more than 40 µM; under `Cc1cc(C)c2c(n1)nn1c(S)c(Cc3ccccc3)c(C)nc21` [RR], more than 40 µM; under `Cc1nn2c(S)c3c(nc2c1-c1ccccc1)CCCC3` [Compound K], more than 40 µM.
Same read-out and setting: next, `Cc1nn2c(S)c(Cc3ccccc3)cnc2c1-c1ccccc1` [Compound DD, 6-benzyl-2-methyl-3-phenyl-pyrazolo[1,5-a]pyrimidin-7-thiol]: more than 40 µM; `Cc1nc2c(-c3cccnc3)c(C)nn2c(S)c1Cc1ccccc1` [Compound D3]: 21 µM; `Cc1nc2c(C(=O)N(C)C)c(C)nn2c(S)c1Cc1ccccc1` [II]: more than 40 µM.
Consider `Cc1nc2c(-c3cccnc3)c(C)nn2c(O)c1Cc1ccccc1` [Compound L3], for which the EC50 was more than 40 µM.
For the molecule `Cc1nc2c(-c3ccccc3)c(C)nn2c(S)c1Cc1ccccc1` [Compound A, 6-benzyl-2,5-dimethyl-3-phenylpyrazolo[1,5-a]pyrimidine-7-thiol], the “Parkin activity in an auto-ubiquitination assay” value is “increases”.
For `Cc1nc2c(-c3ccccc3)c(C)nn2c(S)c1Cc1ccccn1` [Compound BB, 2,5-dimethyl-3-phenyl-6-(2-pyridylmethyl)pyrazolo[1,5-a]pyrimidine-7-thiol], the EC50 was found to be 8.8 µM.
As to `Cc1nc2c(C#N)c(C)nn2c(S)c1Cc1ccccc1` [OO], the EC50 was more than 40 µM.
Consider `CNc1c2c(nc3c(-c4ccccc4)c(C)nn13)CCN(C)C2` [YY], for which the EC50 is more than 40 µM.
Same read-out and setting: next, `Cc1ccc(-c2cnn3c(O)cc(C)nc23)cc1` [Compound H3]: more than 40 µM.
